Read-outs that look alike come from different tables or passages of the source.
How the values were obtained:
Type in all cases: in vivo
[1] = tested on: Alopecurus myosuroides (ALOMY); assay: Pre-emergence herbicidal action against ALOMY; conditions: scored visually after about 3 weeks, 100% = plants have died
Procedure, shortened: (§1)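 Herbicide applied to soil before seedling emergence, at 600 l/ha spray volume with 0.5% additive and rates up to 320 g/ha. Evaluation: visual percentage effect, about 3 weeks later, greenhouse-grown pots compared with untreated ones.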

[2] = tested on: Amaranthus retroflexus (AMARE); assay: Pre-emergence herbicidal action against AMARE; conditions: visual scoring after about 3 weeks vs untreated controls
Procedure, shortened: as §1

[3] = tested on: Avena fatua (AVEFA); assay: Pre-emergence herbicidal action against AVEFA; conditions: 320 g/ha, visual scoring after about 3 weeks vs untreated controls
Procedure, shortened: as §1

[4] = tested on: Digitaria sanguinalis (DIGSA); assay: Pre-emergence herbicidal action against DIGSA
Procedure, shortened: as §1

[5] = tested on: Echinochloa crus-galli (ECHCG); assay: Pre-emergence herbicidal action against ECHCG; conditions: dosage 320 g/ha
Procedure, shortened: as §1

[6] = tested on: Lolium rigidum (LOLRI); assay: Pre-emergence herbicidal action against LOLRI
Procedure, shortened: as §1

[7] = tested on: Matricaria inodora (MATIN); assay: Pre-emergence herbicidal action against MATIN; conditions: dosage 320 g/ha
Procedure, shortened: as §1

[8] = tested on: Pharbitis purpurea (PHBPU); assay: Pre-emergence herbicidal action against PHBPU; conditions: dosage 320 g/ha
Procedure, shortened: as §1

[9] = tested on: Polygonum convolvulus (POLCO); assay: Pre-emergence herbicidal action against POLCO; conditions: dosage 320 g/ha
Procedure, shortened: as §1

[10] = tested on: Setaria viridis (SETVI); assay: Pre-emergence herbicidal action against SETVI
Procedure, shortened: as §1

[11] = tested on: Verconica persica (VERPE); assay: Pre-emergence herbicidal action against VERPE; conditions: dosage 320 g/ha
Procedure, shortened: as §1

[12] = tested on: Viola tricolor (VIOTR); assay: Pre-emergence herbicidal action against VIOTR
Procedure, shortened: as §1

[13] = tested on: Oryza sativa (ORYSA); conditions: pre-emergence, 80 g/ha, crop plant compatibility, in comparison to untreated controls
Procedure, shortened: (§2)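 Scoring: visual, % of untreated control, about 3 weeks after a pre-emergence application to the soil surface. Application used WP or EC formulations diluted in water with 0.5% additive at 600 l/ha; dosage levels are marked by suffixes a, b and c.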

[14] = tested on: Zea mays (ZEAMX); conditions: pre-emergence, 80 g/ha, crop plant compatibility, in comparison to untreated controls
Procedure, shortened: as §2

[15] = tested on: Amaranthus retroflexus (AMARE); assay: Post-emergence herbicidal action against AMARE
Procedure, shortened: (§3)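 Doses of 320 g/ha or lower, suffixes a, b and c marking different dosages, were applied post-emergence at the one-leaf stage in 600 l/ha water with 0.5% additive. Damage was assessed visually after about 3 weeks in the greenhouse.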

[16] = tested on: Polygonum convolvulus (POLCO); assay: Post-emergence herbicidal action against POLCO
Procedure, shortened: as §3

[17] = tested on: Verconica persica (VERPE); assay: Post-emergence herbicidal action against VERPE
Procedure, shortened: as §3

[18] = tested on: Oryza sativa (ORYSA); conditions: crop plant compatibility
Procedure, shortened: (§4)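 Visual rating (% effect vs. untreated plants; 100% = plant death) made about 3 weeks after treatment. Plants had been sprayed at one-leaf stage, 2–3 weeks post-sowing, with aqueous WP/EC preparations containing 0.5% additive, 600 l/ha water volume; a, b, c mark dose levels.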

[19] = tested on: Zea mays (ZEAMX); conditions: for Post-emergence action against ZEAMX in % (crop plant compatibility): 20 g/ha, effect in comparison to untreated controls; for Post-emergence action against ZEAMX in %: crop plant compatibility, effect vs untreated controls
Procedure, shortened: as §4

[20] = tested on: Alopecurus myosuroides (ALOMY); assay: Post-emergence herbicidal action against ALOMY; conditions: visual rating about 3 weeks after treatment vs untreated controls (100% = plants have died, 0% = like control plants)
Procedure, shortened: as §3

[21] = tested on: Digitaria sanguinalis (DIGSA); assay: Post-emergence herbicidal action against DIGSA; conditions: visual rating about 3 weeks after treatment
Procedure, shortened: as §3

[22] = tested on: Avena fatua (AVEFA); assay: Post-emergence herbicidal action against AVEFA; conditions: visual rating about 3 weeks after treatment
Procedure, shortened: as §3

[23] = tested on: Echinochloa crus-galli (ECHCG); assay: Post-emergence herbicidal action against ECHCG; conditions: dosage 320 g/ha
Procedure, shortened: as §3

[24] = tested on: Lolium rigidum (LOLRI); assay: Post-emergence herbicidal action against LOLRI; conditions: dosage 320 g/ha
Procedure, shortened: as §3

[25] = tested on: Pharbitis purpurea (PHBPU); assay: Post-emergence herbicidal action against PHBPU; conditions: dosage 320 g/ha
Procedure, shortened: as §3

[26] = tested on: Setaria viridis (SETVI); assay: Post-emergence herbicidal action against SETVI
Procedure, shortened: as §3

[27] = tested on: Viola tricolor (VIOTR); assay: Post-emergence herbicidal action against VIOTR; conditions: 320 g/ha
Procedure, shortened: as §3

[28] = 80 g/ha, visual scoring after about 3 weeks vs untreated controls
[29] = 80 g/ha, visual rating about 3 weeks after treatment vs untreated controls (100% = plants have died, 0% = like control plants)
[30] = 20 g/ha, effect vs untreated controls
[31] = 80 g/ha, effect in comparison to untreated controls

Pre-emergence action against ORYSA in % [13] [%]	Pre-emergence action against ZEAMX in % [14] [%]	Post-emergence action against ORYSA in % [18, 31] [%]	Compound	Pre-emergence action against ALOMY ([1]; 80 g/ha) [%]	Pre-emergence action against ALOMY ([1]; 320 g/ha) [%]	Pre-emergence action against AMARE in % ([2]; 80 g/ha) [%]	Pre-emergence action against AMARE in % ([2]; 320 g/ha) [%]	Pre-emergence action against DIGSA in % [4, 28] [%]	Pre-emergence action against DIGSA in % ([4]; dosage 320 g/ha) [%]	Pre-emergence action against ECHCG in % [5] [%]	Pre-emergence action against LOLRI in % ([6]; dosage 320 g/ha) [%]	Pre-emergence action against MATIN in % [7] [%]	Pre-emergence action against PHBPU in % [8] [%]	Pre-emergence action against POLCO in % [9] [%]	Pre-emergence action against SETVI in % ([10]; dosage 80 g/ha) [%]	Pre-emergence action against SETVI in % ([10]; dosage 320 g/ha) [%]	Pre-emergence action against VERPE in % [11] [%]	Pre-emergence action against VIOTR in % ([12]; 320 g/ha, Viola tricolor) [%]	Post-emergence action against AMARE in % [15, 29] [%]	Post-emergence action against VERPE in % ([17]; dosage 80 g/ha) [%]	further results
0	0	0	O=C(O)COc1nn(-c2ccccn2)c(-c2ccnc(F)c2)c1Br [Example I-122]	80	100	80	100	100	100	100	100	80	90	80	100	100	100	100	90	80	Pre-emergence action against AVEFA in % [3]: 90%; Pre-emergence action against VIOTR in % ([12]; dosage 80 g/ha): 100%; Post-emergence action against POLCO in % ([16]; dosage 80 g/ha): 90%; Post-emergence action against ORYSA in % [18, 30]: 0%; Post-emergence action against ZEAMX in % (crop plant compatibility) [19]: 0%
10	20	0	O=C(COc1nn(-c2ccccn2)c(-c2ccc(F)nc2)c1Br)OCC1CCOC1 (stereo not drawn) [Example I-90]	90	100	100	100	100	100	100	100	90	90	90	90	100	90	90	80	90	Post-emergence action against ALOMY in % ([20]; 80 g/ha): 90%; Post-emergence action against DIGSA in % ([21]; 80 g/ha): 90%; Post-emergence action against ORYSA in % [18, 30]: 0%; Post-emergence action against ZEAMX in % (crop plant compatibility) [19]: 0%; Post-emergence action against ZEAMX in % ([19]; 80 g/ha): 10%
20	10	20	O=C(O)COc1nn(-c2nc(F)ccc2F)c(-c2ccc(F)nc2)c1C1CC1 [Example I-302]	–	90	–	90	90	100	90	90	90	–	–	–	100	90	90	80	–	Pre-emergence action against LOLRI in % ([6]; dosage 80 g/ha): 80%; Post-emergence action against ALOMY in % ([20]; 80 g/ha): 80%; Post-emergence action against ALOMY in % ([20]; 320 g/ha): 90%; Post-emergence action against AMARE in % ([15]; 320 g/ha, visual rating about 3 weeks after treatment): 90%; Post-emergence action against AVEFA in % ([22]; 80 g/ha): 80%; Post-emergence action against AVEFA in % ([22]; 320 g/ha): 80%; Post-emergence action against DIGSA in % ([21]; 320 g/ha): 80%; Post-emergence action against ECHCG in % [23]: 80%; Post-emergence action against LOLRI in % [24]: 80%; Post-emergence action against PHBPU in % [25]: 80%; Post-emergence action against POLCO in % ([16]; dosage 320 g/ha): 80%; Post-emergence action against SETVI in % ([26]; dosage 80 g/ha): 80%; Post-emergence action against SETVI in % ([26]; dosage 320 g/ha): 90%; Post-emergence action against VERPE in % ([17]; 320 g/ha, VERPE): 80%; Post-emergence action against VIOTR in % [27]: 80%; Post-emergence action against ZEAMX in % ([19]; 80 g/ha): 0%; Post-emergence action against ZEAMX in % ([19]; 320 g/ha): 10%

Reference: patent publication US20240041042A1, “1-(PYRIDYL)-5-AZINYLPYRAZOLE DERIVATIVES, AND THEIR USE FOR CONTROL OF UNDESIRED PLANT GROWTH” (Bayer Aktiengesellschaft, priority 2020, published 2024)
